In patent publication US20240301409A1, “Chemically Modified Small Activating RNA” (RACTIGEN THERAPEUTICS, priority 2021, published 2024):

How the values were obtained:
Ku-7-LG cells = assay: Cell cycle detection by flow cytometry in Ku-7-LG cells; format: cell-based, human; details: 48 hours
Description: RAG1-40-31 and RAG1-40-53 were transfected into Ku-7-LG cells at the final concentrations of 0.1, 1, 10 and 50 nM, and the transfection duration was 48 hours. Two replicate wells were used for each treatment. After transfection, the cell cycle was analyzed by flow cytometry, and the collected data were analyzed by MotFit software.
After transfection, the supernatant was discarded to collect cells. To each well 500 μL PBS was added for one wash and then discarded. To each well 100 μL trypsin was further added. 900 μL medium was added to stop digestion before transferring to a 1.5 mL centrifuge tube. All the cells were collected through centrifugation (400 rcf, 5 min) and counted (2×10^5 cells/200 μL PBS). Cold 70% absolute ethanol was added before incubation overnight at 4° C. After washing twice with PBS, 200 μL Krishan buffer was added before incubation at 4° C. for 1 hour. After washing twice with PBS, the supernatant was discarded and 200 μL PBS was added for cell re-suspension, then the cells were transferred to a 96-well plate and analyzed by flow cytometer. The collected data were analyzed with MotFit software.
In order to study the mechanism of cellular proliferation suppression, change in cell cycle was analyzed using flow cytometry in this example. Randomly selected saRNAs RAG1-40-31 and RAG1-40-53 were transfected into Ku-7-LG cells at final concentrations of 0.1, 1, 10 and 50 nM, respectively, for 48 hours. Each treatment was set in duplicate. Cell cycle was detected and analyzed as described in the general protocol above.

J82 cells = assay: Apoptosis detection (FITC Annexin V, flow cytometry) in J82 cells with or without PBMC co-culture; format: cell-based, human
Description: J82 cells were transfected with RAG1-40-31 and RAG1-40-53 at final concentrations of 0.1, 1, 10 and 25 nM, and 24 hours after transfection, fresh medium was replaced and a certain ratio of PBMC cells was added (J82 cells:PBMC cells=1:4). The cells were co-cultured for 48 hours. After co-culture, cells were collected and cell apoptosis was detected by flow cytometry. FIGS. 13A-13B show the relative proliferation proportion of J82 cells after the combined treatment with chemically modified saRNA RAG1-40-31 and Mitomycin C. […] Control and DMSO are the blank transfection control and the solvent for dilution control, respectively.
J82 cells were transfected with RAG1-40-31 at 0.1, 1, 10 and 25 nM. After 24 hours of transfection, the cells were refreshed with PBMC cell-containing fresh medium. The PBMC and J82 cells were co-cultured for 48 hours, and then the supernatant was discarded and the cells were collected. 500 μL PBS was added to each well for washing and then discarded, before the addition of 100 μL trypsin/well. 900 μL medium was added to stop digestion and the content was transferred to a 1.5 mL centrifuge tube. All the cells were collected through centrifugation (400 rcf, 5 min) and counted (1˜2×10^5 cells/100 μL Binding Buffer). 100 μL of 1× Binding Buffer (B&D Systems, 51-66121E), 5 μL FITC Annexin V (B&D Systems, 51-65874X) and 5 μL PI (B&D Systems, 51-66211E) were added before incubation in dark at room temperature for 15 minutes. After the incubation, 100 μL of 1× binding buffer was added before blending and transferring to a 96-well plate for analysis with flow cytometer (Beckman Coulter). The sample should be analyzed within 1 hour.
In order to verify this hypothesis, in this example, RAG1-40-31 duplex was selected to transfect J82 cells, and after 24 hours of transfection, the cells were refreshed with fresh medium and PBMC cells at a certain ratio (J82 cells:PBMC cells=1:4) were added, or cells free of PBMC were replaced as control. After 48 hours of co-culture, FITC Annexin V kit was used to detect the apoptosis of tumor cells on a flow cytometer. […] In PBMC-free cell culture, for RAG1-40-31 treatments at 0.1, 1, 10 and 25 nM, the percentages of cells in early apoptosis were 2.3%, 2.6%, 9.4% and 15.5%, respectively, and the percentages of cells in late apoptosis were 5.3%, 5.2%, 6.7% and 9.1%, respectively. In co-culture with PBMC cells, for RAG1-40-31 treatments at 0.1, 1, 10 and 25 nM, the percentages of cells in early apoptosis were 2.0%, 4.5%, 31.5% and 49.3%, respectively, and the percentages of cells in late apoptosis were 5.6%, 7.3%, 6.3% and 5.8%, respectively.

RNase A = target: T1, RNase A (Bos taurus, UniProt P61823)
T1 sequence (P61823 27-150): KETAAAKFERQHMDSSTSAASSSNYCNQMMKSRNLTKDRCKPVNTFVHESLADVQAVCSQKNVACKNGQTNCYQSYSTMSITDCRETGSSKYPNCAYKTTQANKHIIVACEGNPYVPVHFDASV

[1] = co-culture with PBMC cells (1:4) 48 hours, 0.1 nM
[2] = co-culture with PBMC cells (1:4) 48 hours, 1 nM
[3] = co-culture with PBMC cells (1:4) 48 hours, 10 nM
[4] = co-culture with PBMC cells (1:4) 48 hours, 25 nM

Substance: RAG1-40-31: saRNA duplex: sense fCfCAACUCAUUCUCCAAG*U*C (SEQ ID NO 16); antisense U*A*fCfUfUGGAGAAfUGAGfUfUGG*fC*A (SEQ ID NO 12) (sense CCAACUCAUUCUCCAAGUC; antisense UACUUGGAGAAUGAGUUGGCA; 2'-F and phosphorothioate modifications; modified_base (1)..(2) (1,2)=2′-fluoro; modified_base (17)..(19) (17,18,19)=phosphorothioate (PS) backbone modification; modified_base (2)..(21) (2,3,19,20,21)=phosphorothioate (PS) backbone modification; modified_base (3)..(20) (3,4,5,12,16,17,20)=2′-fluoro)
- percentage of cells in DNA anaphase/mitosis (G2/M) (Ku-7-LG cells; 0.1 nM): 6%
- percentage of cells in DNA replication phase (S phase) (Ku-7-LG cells; 0.1 nM): 32%
- percentage of cells in prophase of DNA synthesis (G0/G1) (Ku-7-LG cells; 0.1 nM): 62%
- percentage of cells in DNA anaphase/mitosis (G2/M) (Ku-7-LG cells; 1 nM): 9%
- percentage of cells in DNA replication phase (S phase) (Ku-7-LG cells; 1 nM): 22%
- percentage of cells in prophase of DNA synthesis (G0/G1) (Ku-7-LG cells; 1 nM): 69%
- percentage of cells in DNA anaphase/mitosis (G2/M) (Ku-7-LG cells; 10 nM): 8%
- percentage of cells in DNA replication phase (S phase) (Ku-7-LG cells; 10 nM): 11%
- percentage of cells in prophase of DNA synthesis (G0/G1) (Ku-7-LG cells; 10 nM): 81%
- percentage of cells in DNA anaphase/mitosis (G2/M) (Ku-7-LG cells; 50 nM): 13%
- percentage of cells in DNA replication phase (S phase) (Ku-7-LG cells; 50 nM): 6%
- percentage of cells in prophase of DNA synthesis (G0/G1) (Ku-7-LG cells; 50 nM): 81%
- percentage of cells in early apoptosis (J82 cells; PBMC-free cell culture, 0.1 nM): 2.3%
- percentage of cells in late apoptosis (J82 cells; PBMC-free cell culture, 0.1 nM): 5.3%
- percentage of cells in early apoptosis (J82 cells; PBMC-free cell culture, 1 nM): 2.6%
- percentage of cells in late apoptosis (J82 cells; PBMC-free cell culture, 1 nM): 5.2%
- percentage of cells in early apoptosis (J82 cells; PBMC-free cell culture, 10 nM): 9.4%
- percentage of cells in late apoptosis (J82 cells; PBMC-free cell culture, 10 nM): 6.7%
- percentage of cells in early apoptosis (J82 cells; PBMC-free cell culture, 25 nM): 15.5%
- percentage of cells in late apoptosis (J82 cells; PBMC-free cell culture, 25 nM): 9.1%
- percentage of cells in early apoptosis (J82 cells; [1]): 2.0%
- percentage of cells in late apoptosis (J82 cells; [1]): 5.6%
- percentage of cells in early apoptosis (J82 cells; [2]): 4.5%
- percentage of cells in late apoptosis (J82 cells; [2]): 7.3%
- percentage of cells in early apoptosis (J82 cells; [3]): 31.5%
- percentage of cells in late apoptosis (J82 cells; [3]): 6.3%
- percentage of cells in early apoptosis (J82 cells; [4]): 49.3%
- percentage of cells in late apoptosis (J82 cells; [4]): 5.8%
- degradation of duplex at 96 hours (RNase A): little or no signs of degradation
